# According to patent US8247211B2, “Glycopeptide antibiotics” (American Cyanamid Company, priority 2001, dated 2012):
# Columns and labels:
# Test in all cases: In vitro antibacterial evaluation: minimum inhibitory concentration (MIC), broth dilution method
# Assay type in all cases: cell-based
# Settings in all cases: 18 hours at 35° C.
# Streptococcus sp. = system: Streptococcus sp.
# Outline: (§1)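 Inoculum: 5×10^5 CFU/mL. Range: 64-0.06 μg/mL. Medium: Muller-Hinton II […]; NCCLS M7-A2 broth dilution. Endpoint: lowest concentration inhibiting growth. Strains include methicillin-, penicillin- and/or vancomycin-resistant clinical isolates.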
# Escherichia coli = system: Escherichia coli
# Outline: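 NCCLS M7-A2 broth dilution; Muller-Hinton II […]; 5×10^5 CFU/mL; 64-0.06 μg/mL. MIC = lowest concentration with no growth.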
# Staphylococcus sp. = system: Staphylococcus sp.
# Outline: as §1
# Enterococcus sp. = system: Enterococcus sp.
# Outline: as §1
# [1] = Streptococcus agalactiae (GC 4564)
# [2] = Streptococcus pneumoniae (ATCC 6301)
# [3] = Streptococcus pneumoniae (GC 1894)
# [4] = Streptococcus pneumoniae (GC 4565)
# [5] = Streptococcus pyogenes (GC 4563)
# [6] = broth dilution, inoculum 5×10^5 CFU/mL
# [7] = Enterococcus faecalis (GC 2242)
# [8] = Enterococcus faecalis (GC 2691)
# [9] = Enterococcus faecalis (GC 3059)
smiles,measurement,setting,value
"COc1ccc(COCC2OC(OC3C(CO)OC(Oc4ccc(CC5NC(=O)C(C(C)c6ccccc6)NC(=O)CNC(=O)C(CO)NC(=O)C(C(O)C6CNC(=N)N6C6OC(CO)C(O)C(O)C6O)NC(=O)C(C(O)C6CNC(=N)N6)NC5=O)cc4)C(O)C3O)C(O)C(O)C2O)c2ccccc12 (stereo not drawn) [Example 240, Cyclo[glycyl-β-methylphenylalanyl-O-[4-O-[6-O-[(4-methoxy-1-naphthyl)methyl]hexo-pyranosyl]hexopyranosyl]tyrosyl-3-(2-iminoimidazolidin-4-yl)seryl-3-(3-hexopyranosyl-2-iminoimidazolidin-4-yl)serylseryl]]",MIC Streptococcus agalactiae (GC 4564),Streptococcus sp.; [1],0.5 µg/mL
same,MIC Streptococcus pneumoniae (ATCC 6301),Streptococcus sp.; [2],<0.12 µg/mL
same,MIC Streptococcus pneumoniae (GC 1894),Streptococcus sp.; [3],<0.12 µg/mL
same,MIC Streptococcus pneumoniae (GC 4565),Streptococcus sp.; [4],0.25 µg/mL
same,MIC Streptococcus pyogenes (GC 4563),Streptococcus sp.; [5],0.5 µg/mL
same,MIC Streptococcus agalactiae (GC 4564),Streptococcus sp.; [6],0.5 µg/mL
same,MIC Streptococcus pneumoniae (ATCC 6301),Streptococcus sp.; [6],<0.12 µg/mL
same,MIC Streptococcus pneumoniae (GC 1894),Streptococcus sp.; [6],<0.12 µg/mL
same,MIC Streptococcus pneumoniae (GC 4565),Streptococcus sp.; [6],0.25 µg/mL
same,MIC Streptococcus pyogenes (GC 4563),Streptococcus sp.; [6],0.5 µg/mL
same,MIC Escherichia coli (GC 4560),Escherichia coli,2 µg/mL
same,MIC Coagulase Negative Staphylococcus (GC 4547),Staphylococcus sp.,4 µg/mL
same,MIC Coagulase Negative Staphylococcus (GC 4548),Staphylococcus sp.,2 µg/mL
same,MIC Coagulase Negative Staphylococcus (GC 4549),Staphylococcus sp.,2 µg/mL
same,MIC Coagulase Negative Staphylococcus (GC 4551),Staphylococcus sp.,2 µg/mL
same,MIC Coagulase Negative Staphylococcus (GC 6257),Staphylococcus sp.,2 µg/mL
same,MIC Staphylococcus aureus (ATCC 29213),Staphylococcus sp.,4 µg/mL
same,MIC Staphylococcus aureus (GC 1131),Staphylococcus sp.,4 µg/mL
same,MIC Staphylococcus aureus (GC 3051),Staphylococcus sp.,0.5 µg/mL
same,MIC Staphylococcus aureus (GC 3053),Staphylococcus sp.,4 µg/mL
same,MIC Staphylococcus aureus (GC 4541),Staphylococcus sp.,1 µg/mL
same,MIC Staphylococcus aureus (GC 4542),Staphylococcus sp.,2 µg/mL
same,MIC Staphylococcus aureus (GC 4544),Staphylococcus sp.,4 µg/mL
same,MIC Staphylococcus aureus (GC 4545),Staphylococcus sp.,4 µg/mL
same,MIC Staphylococcus aureus-SMITH (GC 4543),Staphylococcus sp.,2 µg/mL
same,MIC Staphylococcus haemolyticus (GC 4546),Staphylococcus sp.,2 µg/mL
same,MIC Enterococcus avium (GC 4558),Enterococcus sp.,4 µg/mL
same,MIC Enterococcus faecalis (ATCC 29212),Enterococcus sp.,16 µg/mL
same,MIC Enterococcus faecalis (GC 2242),Enterococcus sp.; [7],16 µg/mL
same,MIC Enterococcus faecalis (GC 2691),Enterococcus sp.; [8],8 µg/mL
same,MIC Enterococcus faecalis (GC 3059),Enterococcus sp.; [9],8 µg/mL
same,MIC Enterococcus faecalis (GC 4552),Enterococcus sp.,16 µg/mL
same,MIC Enterococcus faecalis (GC 4553),Enterococcus sp.,16 µg/mL
same,MIC Enterococcus faecalis (GC 4554),Enterococcus sp.,16 µg/mL
same,MIC Enterococcus faecalis (GC 6189),Enterococcus sp.,8 µg/mL
same,MIC Enterococcus faecium (GC 2243),Enterococcus sp.,16 µg/mL
same,MIC Enterococcus faecium (GC 4556),Enterococcus sp.,16 µg/mL
same,MIC Enterococcus faecium (GC 4557),Enterococcus sp.,2 µg/mL
same,MIC Enterococcus faecalis (GC 2242),Enterococcus sp.; [6],16 µg/mL
same,MIC Enterococcus faecalis (GC 2691),Enterococcus sp.; [6],8 µg/mL
same,MIC Enterococcus faecalis (GC 3059),Enterococcus sp.; [6],8 µg/mL
"CC(c1ccccc1)C1NC(=O)CNC(=O)C(CO)NC(=O)C(C(O)C2CNC(=N)N2C2OC(CO)C(O)C(O)C2O)NC(=O)C(C(O)C2CNC(=N)N2)NC(=O)C(Cc2ccc(OC3OC(CO)C(OC4OC(COCC=C(c5ccccc5)c5ccccc5)C(O)C(O)C4O)C(O)C3O)cc2)NC1=O (stereo not drawn) [Example 241, Cyclo[glycyl-β-methylphenylalanyl-O-[4-O-[6-O-[3,3-diphenylprop-2-en-1-yl)hexopyranosyl]-hexopyranosyl]tyrosyl-3-(2-iminoimidazolidin-4-yl)seryl-3-(3-hexopyranosyl-2-iminoimidazolidin-4-yl)serylseryl]]",MIC Streptococcus agalactiae (GC 4564),Streptococcus sp.; [1],<0.06 µg/mL
same,MIC Streptococcus pneumoniae (ATCC 6301),Streptococcus sp.; [2],<0.06 µg/mL
same,MIC Streptococcus pneumoniae (GC 1894),Streptococcus sp.; [3],<0.06 µg/mL
same,MIC Streptococcus pneumoniae (GC 4565),Streptococcus sp.; [4],<0.06 µg/mL
same,MIC Streptococcus pyogenes (GC 4563),Streptococcus sp.; [5],<0.06 µg/mL
same,MIC Streptococcus agalactiae (GC 4564),Streptococcus sp.; [6],<0.06 µg/mL
same,MIC Streptococcus pneumoniae (ATCC 6301),Streptococcus sp.; [6],<0.06 µg/mL
same,MIC Streptococcus pneumoniae (GC 1894),Streptococcus sp.; [6],<0.06 µg/mL
same,MIC Streptococcus pneumoniae (GC 4565),Streptococcus sp.; [6],<0.06 µg/mL
same,MIC Streptococcus pyogenes (GC 4563),Streptococcus sp.; [6],<0.06 µg/mL
same,MIC Escherichia coli (ATCC 25922),Escherichia coli; Escherichia coli (ATCC 25922),>64 µg/mL
same,MIC Escherichia coli (GC 4559),Escherichia coli; Escherichia coli (GC 4559),>64 µg/mL
same,MIC Escherichia coli (GC 4560),Escherichia coli,2 µg/mL
same,MIC Coagulase Negative Staphylococcus (GC 4547),Staphylococcus sp.,2 µg/mL
same,MIC Coagulase Negative Staphylococcus (GC 4548),Staphylococcus sp.,1 µg/mL
same,MIC Coagulase Negative Staphylococcus (GC 4549),Staphylococcus sp.,2 µg/mL
same,MIC Coagulase Negative Staphylococcus (GC 4551),Staphylococcus sp.,4 µg/mL
same,MIC Coagulase Negative Staphylococcus (GC 6257),Staphylococcus sp.,2 µg/mL
same,MIC Staphylococcus aureus (ATCC 29213),Staphylococcus sp.,2 µg/mL
same,MIC Staphylococcus aureus (GC 1131),Staphylococcus sp.,2 µg/mL
same,MIC Staphylococcus aureus (GC 3051),Staphylococcus sp.,2 µg/mL
same,MIC Staphylococcus aureus (GC 3053),Staphylococcus sp.,2 µg/mL
same,MIC Staphylococcus aureus (GC 4541),Staphylococcus sp.,2 µg/mL
same,MIC Staphylococcus aureus (GC 4542),Staphylococcus sp.,2 µg/mL
same,MIC Staphylococcus aureus (GC 4544),Staphylococcus sp.,2 µg/mL
same,MIC Staphylococcus aureus (GC 4545),Staphylococcus sp.,2 µg/mL
same,MIC Staphylococcus aureus-SMITH (GC 4543),Staphylococcus sp.,2 µg/mL
same,MIC Staphylococcus haemolyticus (GC 4546),Staphylococcus sp.,2 µg/mL
same,MIC Enterococcus avium (GC 4558),Enterococcus sp.,4 µg/mL
same,MIC Enterococcus faecalis (ATCC 29212),Enterococcus sp.,4 µg/mL
same,MIC Enterococcus faecalis (GC 2242),Enterococcus sp.; [7],4 µg/mL
same,MIC Enterococcus faecalis (GC 2691),Enterococcus sp.; [8],4 µg/mL
same,MIC Enterococcus faecalis (GC 3059),Enterococcus sp.; [9],2 µg/mL
same,MIC Enterococcus faecalis (GC 4552),Enterococcus sp.,4 µg/mL
same,MIC Enterococcus faecalis (GC 4553),Enterococcus sp.,4 µg/mL
same,MIC Enterococcus faecalis (GC 4554),Enterococcus sp.,4 µg/mL
same,MIC Enterococcus faecalis (GC 6189),Enterococcus sp.,2 µg/mL
same,MIC Enterococcus faecium (GC 2243),Enterococcus sp.,4 µg/mL
same,MIC Enterococcus faecium (GC 4556),Enterococcus sp.,4 µg/mL
same,MIC Enterococcus faecium (GC 4557),Enterococcus sp.,2 µg/mL
same,MIC Enterococcus faecalis (GC 2242),Enterococcus sp.; [6],4 µg/mL
same,MIC Enterococcus faecalis (GC 2691),Enterococcus sp.; [6],4 µg/mL
same,MIC Enterococcus faecalis (GC 3059),Enterococcus sp.; [6],2 µg/mL
